# From ChEMBL document CHEMBL1147178, “Novel thiol-based TACE inhibitors: rational design, synthesis, and SAR of thiol-containing aryl sulfonamides” (Bioorg Med Chem Lett, 2007)
# Assays:
# [1] = target: Disintegrin and metalloproteinase domain-containing protein 17 (Homo sapiens, UniProt P78536); experiment: Inhibition of TNF-alpha converting enzyme
# [2] = target: T1, Matrilysin (Homo sapiens, UniProt P09237); experiment: Inhibition of MMP7
# T1 sequence (P09237 whole entry): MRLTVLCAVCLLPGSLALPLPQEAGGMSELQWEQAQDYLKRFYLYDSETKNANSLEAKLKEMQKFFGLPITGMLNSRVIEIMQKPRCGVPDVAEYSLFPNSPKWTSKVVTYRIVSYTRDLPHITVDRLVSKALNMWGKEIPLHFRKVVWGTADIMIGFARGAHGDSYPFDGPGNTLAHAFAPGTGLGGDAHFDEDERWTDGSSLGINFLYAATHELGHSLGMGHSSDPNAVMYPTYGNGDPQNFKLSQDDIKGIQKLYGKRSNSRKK
# [3] = target: Collagenase 3 (Homo sapiens, UniProt P45452); experiment: Inhibition of MMP13
# [4] = target: 72 kDa type IV collagenase (Homo sapiens, UniProt P08253); experiment: Inhibition of MMP2
# 72 kDa type IV collagenase, sequence (P08253 whole entry): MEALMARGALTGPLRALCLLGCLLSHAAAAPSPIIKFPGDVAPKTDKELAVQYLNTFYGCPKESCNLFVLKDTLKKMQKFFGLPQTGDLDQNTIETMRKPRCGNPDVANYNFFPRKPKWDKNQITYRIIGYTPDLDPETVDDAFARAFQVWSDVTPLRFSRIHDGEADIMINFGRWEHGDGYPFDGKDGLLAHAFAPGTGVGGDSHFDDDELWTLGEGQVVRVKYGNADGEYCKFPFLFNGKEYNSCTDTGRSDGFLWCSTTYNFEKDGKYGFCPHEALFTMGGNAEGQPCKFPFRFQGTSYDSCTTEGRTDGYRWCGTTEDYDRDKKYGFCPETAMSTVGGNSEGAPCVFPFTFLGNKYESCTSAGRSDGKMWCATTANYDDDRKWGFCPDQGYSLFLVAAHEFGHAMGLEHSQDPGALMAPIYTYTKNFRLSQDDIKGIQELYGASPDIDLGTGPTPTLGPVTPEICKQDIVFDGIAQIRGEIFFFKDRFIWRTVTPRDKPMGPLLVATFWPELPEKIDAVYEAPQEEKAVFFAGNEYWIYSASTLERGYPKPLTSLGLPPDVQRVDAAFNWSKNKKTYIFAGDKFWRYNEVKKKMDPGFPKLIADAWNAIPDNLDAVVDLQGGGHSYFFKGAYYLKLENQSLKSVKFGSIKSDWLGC
# [5] = target: Neutrophil collagenase (Homo sapiens, UniProt P22894); experiment: Inhibition of MMP8
# Neutrophil collagenase, sequence (P22894 whole entry): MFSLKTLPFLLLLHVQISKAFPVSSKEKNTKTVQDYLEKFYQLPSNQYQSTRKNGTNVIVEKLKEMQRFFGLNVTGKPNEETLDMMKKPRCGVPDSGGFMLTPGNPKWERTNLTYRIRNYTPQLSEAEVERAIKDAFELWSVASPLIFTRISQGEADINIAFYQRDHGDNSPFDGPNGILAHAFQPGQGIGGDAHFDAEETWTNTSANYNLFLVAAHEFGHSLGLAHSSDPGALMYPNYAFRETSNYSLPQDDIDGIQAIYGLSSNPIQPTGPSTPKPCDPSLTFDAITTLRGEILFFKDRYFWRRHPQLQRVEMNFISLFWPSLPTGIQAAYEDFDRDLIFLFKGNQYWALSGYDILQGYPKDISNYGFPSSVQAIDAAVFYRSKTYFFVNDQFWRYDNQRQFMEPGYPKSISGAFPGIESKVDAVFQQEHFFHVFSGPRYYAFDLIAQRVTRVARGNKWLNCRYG
# [6] = target: Matrix metalloproteinase-9 (Homo sapiens, UniProt P14780); experiment: Inhibition of MMP9
# Matrix metalloproteinase-9, sequence (P14780 whole entry, looked up): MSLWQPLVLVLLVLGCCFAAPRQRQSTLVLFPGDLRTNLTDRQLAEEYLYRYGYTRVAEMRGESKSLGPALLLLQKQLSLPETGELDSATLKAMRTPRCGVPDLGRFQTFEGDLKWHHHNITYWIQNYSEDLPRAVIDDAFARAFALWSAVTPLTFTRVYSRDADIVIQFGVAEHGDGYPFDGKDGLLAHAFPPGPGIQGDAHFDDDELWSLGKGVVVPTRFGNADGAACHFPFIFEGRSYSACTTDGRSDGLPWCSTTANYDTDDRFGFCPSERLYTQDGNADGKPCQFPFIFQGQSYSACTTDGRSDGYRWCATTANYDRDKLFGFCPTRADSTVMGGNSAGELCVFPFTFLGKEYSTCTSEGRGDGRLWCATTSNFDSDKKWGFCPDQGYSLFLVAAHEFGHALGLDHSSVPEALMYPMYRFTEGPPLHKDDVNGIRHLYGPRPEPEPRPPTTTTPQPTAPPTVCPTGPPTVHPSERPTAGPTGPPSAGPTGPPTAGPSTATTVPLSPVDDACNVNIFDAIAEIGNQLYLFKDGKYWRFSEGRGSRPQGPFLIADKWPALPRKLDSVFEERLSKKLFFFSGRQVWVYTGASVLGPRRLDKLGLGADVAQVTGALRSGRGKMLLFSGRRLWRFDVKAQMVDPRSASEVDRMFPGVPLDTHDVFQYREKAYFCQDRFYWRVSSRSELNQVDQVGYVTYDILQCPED
# Disintegrin and metalloproteinase domain-containing protein 17, sequence (P78536 whole entry, the tested form may be a part): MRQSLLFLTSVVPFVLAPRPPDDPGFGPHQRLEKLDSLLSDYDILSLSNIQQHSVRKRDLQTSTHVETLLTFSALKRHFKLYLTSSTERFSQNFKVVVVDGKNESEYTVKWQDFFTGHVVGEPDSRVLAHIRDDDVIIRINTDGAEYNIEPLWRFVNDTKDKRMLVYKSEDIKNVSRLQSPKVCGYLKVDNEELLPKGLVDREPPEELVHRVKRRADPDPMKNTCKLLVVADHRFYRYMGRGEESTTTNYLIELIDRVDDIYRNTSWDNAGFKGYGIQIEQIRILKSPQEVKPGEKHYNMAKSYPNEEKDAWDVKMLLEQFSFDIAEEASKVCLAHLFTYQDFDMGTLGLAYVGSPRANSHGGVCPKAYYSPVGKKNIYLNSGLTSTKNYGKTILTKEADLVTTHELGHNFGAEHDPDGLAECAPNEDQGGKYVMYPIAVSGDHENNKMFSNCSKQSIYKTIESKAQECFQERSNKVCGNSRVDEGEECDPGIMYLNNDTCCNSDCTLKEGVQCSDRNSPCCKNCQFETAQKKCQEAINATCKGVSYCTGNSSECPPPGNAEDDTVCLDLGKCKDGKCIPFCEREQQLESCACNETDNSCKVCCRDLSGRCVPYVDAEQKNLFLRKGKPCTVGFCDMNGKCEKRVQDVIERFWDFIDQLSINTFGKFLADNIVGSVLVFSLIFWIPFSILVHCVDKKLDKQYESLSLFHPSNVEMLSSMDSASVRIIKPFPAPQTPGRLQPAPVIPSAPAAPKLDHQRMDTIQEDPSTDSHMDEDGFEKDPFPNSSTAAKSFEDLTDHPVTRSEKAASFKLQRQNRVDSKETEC
Compound,Ki [1] [nM],Ki [2] [nM],Ki [3] [nM],Ki [4] [nM],Ki [5] [nM],Ki [6] [nM]
CC#CCOc1ccc(S(=O)(=O)N(C)C[C@H](C)S)cc1,27,–,–,–,–,–
CC#CCNc1ccc(S(=O)(=O)N2CC(S)C2)cc1,11,–,–,–,–,–
CC#CCNc1ccc(S(=O)(=O)N2CC[C@@H](S)C2)cc1,5,–,–,–,–,–
CC#CCOc1ccc(S(=O)(=O)N2CC(S)C2)cc1,13,–,–,–,–,–
CC#CCOc1ccc(S(=O)(=O)N(C)CCS)cc1,52,33000,2000,5700,1300,200
CC#CCOc1ccc(S(=O)(=O)N(C)CC(=O)NO)cc1,10,3400,17,27,–,–
CC#CCOc1ccc(S(=O)(=O)N2CC[C@@H](S)C2)cc1,–,> 6000,1200,5000,–,–
O=S(=O)(c1ccc(OCC#CCN2CCCCC2)cc1)N1CC[C@@H](S)C1,530,–,–,–,–,–
CN1CCN(CC#CCOc2ccc(S(=O)(=O)N3CC[C@@H](S)C3)cc2)CC1,3400,–,–,–,–,–
CC#CCOc1ccc(S(=O)(=O)N2CCCC(S)C2)cc1 (racemic),55,> 3000,700,> 3000,–,–
